In patent US10954269B2, “Anti-inflammatory tripeptides” (Dr. August Wolff Gmbh & Co. KG Arzneimittel, priority 2013, dated 2021):

Columns and labels:
[1] = tested on: human keratinocyte cell line (HaCaT); assay: Cytokine secretion on protein level in activated human keratinocyte cell line HaCaT (13-plex FACS / Luminex, supernatant); format: cell-based
Procedure: (§1) Primary T-cells were isolated from peripheral blood from healthy volunteers and from secondary lymphatic organs from naïve C57BL/6 mice, respectively. The cells were stimulated with phorbol-12-myristate-13-acetate (PMA)/Ionomycin and interferon-gamma (IFN-γ), respectively, for 48 h to activate the cells. The activated cells release pro-inflammatory cytokines. In parallel a human (HaCaT) keratinocyte cell line was activated with PMA/Ionomycin and IFN-γ, respectively, too. […] At the same time release of anti-inflammatory IL-10 was inhibited. Two days after addition of PMA/Ionomycin and IFN-γ, respectively, the induction of IL-1 secretion was determined in the supernatant for proving that the cells are activated. […] The anti-inflammatory properties of the tripeptides were determined 48 h and 72 h following stimulation. A 13-plex-system based FACS analysis was used for showing the reduced secretion of pro-inflammatory cytokines in the supernatant. Data for IL-1, IL-2, IL-6, IL-12p70 IL-17, IFN-γ and TNF-α are considered to be most relevant. Thus, analysis of the anti-inflammatory properties of the tripeptides is preferably based on the results obtained for these analytes. […] Using this method the gene expression of pro-inflammatory markers like IL-6, IL-17, IFN-γ and TNF-α was determined.
In a third experiment murine and human T cells and HaCaT cells were stimulated with PMA/Ionomycin and treated with Examples 14, 15, 16 and 17 at 10^−7 M, 10^−9 M and 10^−11 M. Cytokine concentrations (IFN-γ, IL-17 and IL-10 for T cells and IFN-γ for HaCat) were assessed in the supernatants using the Luminex technology. Expression of genes coding for Il-1β, IL-6 and TNF-α was determined. […] Moreover, concentrations of pro-inflammatory cytokines IFN-γ and IL-17 was reduced in the supernatants whereas the concentration of anti-inflammatory cytokine IL-10 was increased. […]
For the biological assay two human cell lines of different origin were chosen to allow for translation of the results obtained. A HaCaT cell is a cell type belonging to an immortal human keratinocyte line used in scientific research. Its use in research allows for the characterization of human keratinocyte using a model that is reproducible and representing a human epithelial cell line. In contrast human T-lymphocytes (T-cells) are a type of lymphocyte (itself a type of white blood cell) that play a central role in cell-mediated inflammation/immunity.

primary murine T-cells = assay: Cytokine secretion on protein level in activated primary murine T-cells (13-plex FACS / Luminex, supernatant); format: cell-based, C57BL/6 mice; conditions: for IL-1 cytokine concentration / IL-2 cytokine concentration / IL-4 cytokine concentration / IL-5 cytokine concentration / IL-6 cytokine concentration / IL-10 cytokine concentration / IL-13 cytokine concentration / IL-17 cytokine concentration / IL-21 cytokine concentration / IL-22 cytokine concentration / IL-27 cytokine concentration / TNF-α cytokine concentration / IFN-γ cytokine concentration: substance 10^−9M
Procedure: as §1
In a third experiment murine and human T cells and HaCaT cells were stimulated with PMA/Ionomycin and treated with Examples 14, 15, 16 and 17 at 10^−7 M, 10^−9 M and 10^−11 M. Cytokine concentrations (IFN-γ, IL-17 and IL-10 for T cells and IFN-γ for HaCat) were assessed in the supernatants using the Luminex technology. Expression of genes coding for Il-1β, IL-6 and TNF-α was determined. […] Moreover, concentrations of pro-inflammatory cytokines IFN-γ and IL-17 was reduced in the supernatants whereas the concentration of anti-inflammatory cytokine IL-10 was increased.
The anti-inflammatory and immunomodulatory effects of selected examples of the present invention were compared with common immunosuppressants. Thus, cells activated with PMA/Ionomycin and IFN-γ, respectively, were stimulated with MMF or dexamethasone. Following stimulation the secretion of pro-inflammatory cytokines was analyzed on protein and gene level (Table 9 and FIGS. 4-6).

[2] = HaCaT stimulated with PBS, substance 10^−9M
[3] = HaCaT stimulated with PMA/Ionomycin, substance 10^−9M
[4] = primary murine T-cells stimulated with IFN-γ
[5] = primary murine T-cells stimulated with PBS
[6] = primary murine T-cells stimulated with PMA/Ionomycin

H-(L)-Nle-(L)-Pro-Aib-OH [Example 12]
IL-10 cytokine concentration [1, 2]: 69.45 pg/mL
IL-12p70 cytokine concentration [1, 2]: 0 pg/mL
IL-13 cytokine concentration [1, 2]: 193.75 pg/mL
IL-17 cytokine concentration [1, 2]: 0 pg/mL
IL-22 cytokine concentration [1, 2]: 0 pg/mL
TNF-α cytokine concentration [1, 2]: 5.55 pg/mL
IFN-γ cytokine concentration [1, 3]: 22.77 pg/mL
IL-1 cytokine concentration [1, 3]: 0 pg/mL
IL-2 cytokine concentration [1, 3]: 0 pg/mL
IL-4 cytokine concentration [1, 3]: 0 pg/mL
IL-5 cytokine concentration [1, 3]: 0 pg/mL
IL-6 cytokine concentration [1, 3]: 158.4 pg/mL
IL-9 cytokine concentration [1, 3]: 0 pg/mL
IL-10 cytokine concentration [1, 3]: 86.04 pg/mL
IL-12p70 cytokine concentration [1, 3]: 0 pg/mL
IL-13 cytokine concentration [1, 3]: 0 pg/mL
IL-17 cytokine concentration [1, 3]: 25.98 pg/mL
IL-22 cytokine concentration [1, 3]: 0 pg/mL
TNF-α cytokine concentration [1, 3]: 0 pg/mL
secretion / expression of pro-inflammatory cytokines (supernatant) ([1]; activated human keratinocytes): able to reduce
secretion / expression of pro-inflammatory cytokines (supernatant) (primary murine T-cells; activated primary murine T-cells): able to reduce
IL-1 cytokine concentration (primary murine T-cells; [4]): 86.08 pg/mL
IL-2 cytokine concentration (primary murine T-cells; [4]): 88.9 pg/mL
IL-4 cytokine concentration (primary murine T-cells; [4]): 34.22 pg/mL
IL-5 cytokine concentration (primary murine T-cells; [4]): 221.57 pg/mL
IL-6 cytokine concentration (primary murine T-cells; [4]): 110.7 pg/mL
IL-10 cytokine concentration (primary murine T-cells; [4]): 1130.01 pg/mL
IL-13 cytokine concentration (primary murine T-cells; [4]): 0 pg/mL
IL-17 cytokine concentration (primary murine T-cells; [4]): 72.21 pg/mL
IL-21 cytokine concentration (primary murine T-cells; [4]): 40.2 pg/mL
IL-22 cytokine concentration (primary murine T-cells; [4]): 42.98 pg/mL
IL-27 cytokine concentration (primary murine T-cells; [4]): 12.5 pg/mL
TNF-α cytokine concentration (primary murine T-cells; [4]): 31.88 pg/mL
IFN-γ cytokine concentration (primary murine T-cells; [5]): 0 pg/mL
IL-1 cytokine concentration (primary murine T-cells; [5]): 61.52 pg/mL
IL-2 cytokine concentration (primary murine T-cells; [5]): 189.72 pg/mL
IL-4 cytokine concentration (primary murine T-cells; [5]): 32.24 pg/mL
IL-5 cytokine concentration (primary murine T-cells; [5]): 331.87 pg/mL
IL-6 cytokine concentration (primary murine T-cells; [5]): 223.98 pg/mL
IL-10 cytokine concentration (primary murine T-cells; [5]): 872.36 pg/mL
IL-13 cytokine concentration (primary murine T-cells; [5]): 0 pg/mL
IL-17 cytokine concentration (primary murine T-cells; [5]): 0 pg/mL
IL-21 cytokine concentration (primary murine T-cells; [5]): 69.64 pg/mL
IL-22 cytokine concentration (primary murine T-cells; [5]): 76.71 pg/mL
IL-27 cytokine concentration (primary murine T-cells; [5]): 71.85 pg/mL
TNF-α cytokine concentration (primary murine T-cells; [5]): 74.9 pg/mL
IFN-γ cytokine concentration (primary murine T-cells; [6]): 1298.02 pg/mL
IL-1 cytokine concentration (primary murine T-cells; [6]): 167.79 pg/mL
IL-2 cytokine concentration (primary murine T-cells; [6]): 98.57 pg/mL
IL-4 cytokine concentration (primary murine T-cells; [6]): 90.14 pg/mL
IL-5 cytokine concentration (primary murine T-cells; [6]): 242.24 pg/mL
IL-6 cytokine concentration (primary murine T-cells; [6]): 116.16 pg/mL
IL-10 cytokine concentration (primary murine T-cells; [6]): 1255.25 pg/mL
IL-13 cytokine concentration (primary murine T-cells; [6]): 0 pg/mL
IL-17 cytokine concentration (primary murine T-cells; [6]): 79.1 pg/mL
IL-21 cytokine concentration (primary murine T-cells; [6]): 0 pg/mL
IL-22 cytokine concentration (primary murine T-cells; [6]): 57.07 pg/mL
IL-27 cytokine concentration (primary murine T-cells; [6]): 80.09 pg/mL
TNF-α cytokine concentration (primary murine T-cells; [6]): 50.73 pg/mL
